# According to patent US8221736B2, “Semiochemical” (Rothamsted Research Limited, priority 1999, dated 2012):
# Marks after values point to notes of the source that are not given here.
# Experiments:
# Format in all cases: in vivo
# [1] = system: seven-spot ladybird, Coccinella seplempunclata; experiment: Olfactometer assay with seven-spot ladybird; conditions: 0.5 μl microcaps, position noted every 2 min for 20 min, 8 replicates; control arms 2.4±0.69; P<0.005
# Source text: Since semiochemicals acting as repellents or inhibitors of host attractancy for herbivorous insects are often involved in predation or parasitism, the activity of cis-jasmone was also investigated at higher trophic levels. […] These experiments indicate a behavioural role for cis-jasmone in influencing interactions between plants, herbivorous insects and their predators and parasitoids. Apparatus and methodology were similar to that employed for aphids (above). The test compound was applied in 0.5 μl microcaps (Drummond Sci. Co.) at the end of one of the side arms and each arm was supplied with moist filter paper to minimize differences in relative humidity. Individual C. septempunctata were introduced into the centre of the arena and their positions noted every 2 min for 20 min. The experiment was replicated 8 times and results analysed as above.
# [2] = system: aphid parasitoid Aphidius ervi; experiment: Wind tunnel single choice test of A. ervi with synthetic compounds on filter paper; conditions: 10 μg on filter paper, hexane control 26.7
# Source text: Since semiochemicals acting as repellents or inhibitors of host attractancy for herbivorous insects are often involved in predation or parasitism, the activity of cis-jasmone was also investigated at higher trophic levels. […] These experiments indicate a behavioural role for cis-jasmone in influencing interactions between plants, herbivorous insects and their predators and parasitoids. Naive female A. ervi were flown in a wind tunnel, as described in J. Chem. Ecol. 16, 381-396 (1996) (Poppy et al.). The parasitoids were released 25 cm downwind (single choice tests) or 40 cm downwind (dual choice test) of the target, which was either a plant or a synthetic compound (10 μg in 10 μl hexane) placed on a 2×1 cm strip of filter paper (Whatman No. 1) surrounded by a ring of green crêpe paper. The proportions of parasitoids responding with an oriented flight to the synthetic chemicals were calculated each day on 3 separate days. These values were then subjected to a logit transformation to normalize the data before being analysed by ANOVA followed by Tukey post-hoc tests. The number of parasitoids orienting upwind to the single plant target were recorded and subjected to a χ^2 contingency test (Pearson method on Genstat—see Genstat 5 Committee. Genstat 5 Reference Manual, Release 3 (Clarendon Press, Oxford, 1993)) to determine whether an orienting response was linked to the type of plant treatment. The numbers orienting to each plant in the dual choice test were analysed by a χ^2 to determine whether one plant was more attractive than the other.
# [3] = system: cereal aphids (predominantly Metropolophium dirhodum) on winter wheat, Triticum aestivum; experiment: Field study of cereal aphids on sprayed winter wheat plots; conditions: sprayed 50 g a.i./ha on 5 May and 11 Jun. 1999
# Source text: The data have been transformed back from the logs to ease presentation. […] The predominant aphid species was Metropolophium dirhodum, the rose-grain aphid. S. avenae and Rhopalosiphum padi were also present, but numbers were very low. […] Plots (6 m×6 m) of winter wheat, Triticum aestivum (cv Consort), were arranged in a 5×5 quasi-complete Latin square design. The five cis-jasmone treated plots were sprayed on 5 May and 11 Jun. 1999, using a hand-held hydraulic device, at a rate of 50 g active ingredient/ha in 200 l/ha of aqueous […] BV (0.1%). Control plots were untreated. […] At each count, five tillers were inspected at 12 separate sites on two diagonal transects totalling 60 tillers per plot. Transformed data (y=log(y+1)) were subjected to ANOVA and the sums of squares of the treatments were partitioned to test for significant differences.
# [4] = system: D251 sequence in Vicia faba plants; experiment: Differential display and northern blot of gene-specific sequence D251; conditions: northern blot, versus air
# Experimental: Total RNA was isolated from stem or leaf tissue of plants exposed to air, methyl jasmonate or cis-jasmone. 10 μg RNA per sample was loaded and separated on a formaldehyde gel (Panel A). The samples were then transferred to a nylon membrane and probed with the D251 sequence (Panel B). Lane 1=air treatment (control); lane 2=cis-jasmone treatment; lane 3=methyl jasmonate treatment. In the case of RNA isolated from leaf tissue, only cis-jasmone treatment results in upregulation. In order to determine if cis-jasmone was capable of inducing alterations in plant gene expression, the sensitive technique of differential display was carried out on RNA extracted from plants which had been exposed to air, methyl jasmonate or cis-jasmone. […] To confirm this observation, bands of interest were recovered by excision from the dried gel and re-amplified with the appropriate pair of oligonucleotide primers. The resulting PCR products were cloned and sequenced to confirm the homogeneous nature of the amplified product. These sequences were then used to probe RNA isolated from control or treated V. faba plants. […] It is important to note that the nature of the differential display technique generates short gene-specific probes, containing mainly 3′ untranslated regions of transcribed sequences, and therefore the functional part of the differentially expressed gene is unknown. Thus, using differential display and confirmatory northern blotting, we have shown that methyl jasmonate and cis-jasmone have apparently distinct effects on plant gene expression. […] Thus, the two compounds have distinct effect on plant gene expression and the response to these signalling compounds may be tissue-specific.
structure (smiles),measurement,setting,value
CC/C=C\CC1=C(C)CCC1=O [cis-jasmone],mean number of observations in the treated arm,[1],4.1±1.55
same,% showing oriented flight,[2],53.1^a %
same,"numbers of parasitized aphids, treated versus untreated plots",[3],no significant difference
same,"numbers of cereal aphids per 60 tillers, treated versus untreated plots","[3]; five sampling dates, significant on last two dates",consistently lower
same,expression of D251 sequence in leaf tissue,[4]; RNA from leaf tissue of plants exposed to vapour,upregulated
same,expression of D251 sequence in stem tissue,[4]; RNA from stem tissue of plants exposed to vapour,upregulated to a similar level
